The values below are quoted from earlier work in US20250032494A1, “A COMBINATION TREATMENT FOR CANCER” (My Personal Therapeutics LTD, priority 2021, published 2025).

In data set [1] the test system is tumors with the BRAF V600 mutation. To be noted: both in vitro and in vivo.
The conditions of data set [2]: patients; versus cytotoxic active controls dacarbazine or paclitaxel.
For data set [3] the following is noted: patients; with and without co-administration of DMARDs.

Take `CC(=O)Nc1cccc(-n2c(=O)n(C3CC3)c(=O)c3c(Nc4ccc(I)cc4F)n(C)c(=O)c(C)c32)c1` [Trametinib]: the “cell growth of tumors with the BRAF V600 mutation” value in data set [1] is reported as “inhibits cell growth”. Also, the progression-free survival result in data set [2] is listed as “statistically significant increase in progression-free survival”.
As to `CCOc1cc([C@@H](CS(C)(=O)=O)N2C(=O)c3cccc(NC(C)=O)c3C2=O)ccc1OC` [Apremilast], the improvement over placebo entry in data set [3] is “statistically significant improvement over placebo”.
